# Experimental data from patent US5684151A, “1-arylsulphonyl, arylcarbonyl and 1-arylphosphonyl-3-phenyl-1,4,5,6-tetrahydropyridazines” (priority 1995, dated 1997).
# Read-outs that look alike come from different tables or passages of the source.
# Legend:
# [1] = target: T1, progestin receptor from rabbit uterus (Oryctolagus cuniculus, UniProt P06186); test: Progestin receptor binding (3H-R5020 displacement); details: rabbit uterine cytosol, 4° C., 18 h, read-out: IC50: Binding affinity for the progestin receptor from rabbit uterus
# T1 construct: Cytosolic progestin receptor were obtained by mixing rabbit uterine tissue with a Tris buffer; from tissue; host or cells: rabbit uterus cytosol
# T1 sequence (P06186 whole entry): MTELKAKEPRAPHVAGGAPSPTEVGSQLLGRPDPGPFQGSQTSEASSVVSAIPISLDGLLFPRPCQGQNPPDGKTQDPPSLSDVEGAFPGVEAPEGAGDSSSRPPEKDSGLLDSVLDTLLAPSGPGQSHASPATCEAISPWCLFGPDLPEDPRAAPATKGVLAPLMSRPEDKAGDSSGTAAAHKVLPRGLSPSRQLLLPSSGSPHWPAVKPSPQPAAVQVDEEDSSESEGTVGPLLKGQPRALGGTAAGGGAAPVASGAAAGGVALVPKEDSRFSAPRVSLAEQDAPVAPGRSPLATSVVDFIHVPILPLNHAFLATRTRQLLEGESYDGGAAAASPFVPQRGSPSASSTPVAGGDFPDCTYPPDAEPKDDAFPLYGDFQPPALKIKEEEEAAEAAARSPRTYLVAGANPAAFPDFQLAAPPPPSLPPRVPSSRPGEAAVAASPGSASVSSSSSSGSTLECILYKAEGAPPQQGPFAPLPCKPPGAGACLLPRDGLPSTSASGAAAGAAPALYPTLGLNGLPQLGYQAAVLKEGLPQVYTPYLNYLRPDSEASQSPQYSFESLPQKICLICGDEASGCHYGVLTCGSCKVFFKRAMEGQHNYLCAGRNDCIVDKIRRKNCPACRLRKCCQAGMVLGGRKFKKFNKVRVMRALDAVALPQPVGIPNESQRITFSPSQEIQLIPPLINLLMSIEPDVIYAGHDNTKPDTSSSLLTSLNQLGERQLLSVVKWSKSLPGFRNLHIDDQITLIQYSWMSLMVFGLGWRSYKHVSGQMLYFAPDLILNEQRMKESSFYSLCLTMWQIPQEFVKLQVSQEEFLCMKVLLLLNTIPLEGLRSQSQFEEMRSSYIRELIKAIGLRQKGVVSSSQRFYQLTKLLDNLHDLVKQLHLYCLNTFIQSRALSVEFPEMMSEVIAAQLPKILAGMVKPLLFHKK
# Method: A progestin initiates a biological response by first binding to a progestin receptor. Affinity for progestin receptors was determined by measuring the ability of compounds to displace a progestin radioligand from those receptors in vitro. Cytosolic progestin receptor were obtained by mixing rabbit uterine tissue with a Tris buffer [0.1M Tris-Hcl, 1 mM Na2 EDTA, 1 mM dithiothreotol, 1 mM sodium molybdate, 1% glycerol, pH 7.4]. The tissue/buffer mixture was homogenized under ice-cold conditions. The homogenate was then centrifuged and the supernatant (cytosol preparation) was decanted and stored at -70° C. and thawed prior to use. The competitive binding assay was performed by mixing ^3 H-R5020, a progestin radioligand, with cytosol preparation and various concentrations of test compounds (prepared in DMSO with a final 5% DMSO concentration). This mixture was then incubated at 4° C. for about 18 hours. Non-specific binding was determined using an unlabelled ligand in excess. After the incubation period, the radioligand bound to receptor was separated from free radioligand using dextran-coated charcoal. The amount of bound radioligand was then determined by liquid scintillation counting. The data were expressed as the concentration of test compound that displaced 50% of the radioligand from the receptor (IC50)
# Aspects of the application used in this procedure are described in the following: J. L. McGuire et al., Biochemistry 13, 319, 1974.
# [2] = test system: mouse (MC3T3-E1) and human (TE-85) osteoblast-line cells; assay type: cell-based
# From the text: Compounds of the present invention have utility to treat osteoporosis through enhancement of bone calcification rather than traditional approaches which generally involve inhibition of bone degeneration or resorption. The compounds of the present invention have been evaluated as stimulators of proliferation of osteoblast cell and chick calivaria bone organ culture which is predictive of enhancement of bone mass and bone formation in vivo.
# The action of select compounds to stimulate osteoblast growth was measured in culture by estimating the rate of DNA synthesis by the rate of ^3 H-thymidine incorporation into DNA. Only cells undergoing mitosis synthesized new DNA and thus only these cells incorporated the radiolabelled DNA-specific thymidine. The stimulation of the proliferation and differentiation of bone-forming cells, osteoblasts, was a prerequisite for an increase in bone formation and bone mass. The ability of agents to increase osteoblast proliferation and differentiation can be predicted by their action on cultured osteoblast-line cells in vitro. In this test, mouse (MC3T3-E1) and human (TE-85) osteoblast-line cells (American Type Tissue Culture Collection, #CRL 1543, Rockville, Md. cloned by Sudo et al., Koriyama, Japan) were cultured in vitro and the effect of various agents were tested on osteoblast cell proliferation. Cells were harvested from large culture flasks where they were allowed to grow to near confluency using trypsin. The cells were plated into 96 well culture plates, 1600 cells in 100 μL per well in Dulbencos Modified Eagle's Medium (DMEM) with 25 mM HEPES buffer, L-glutamine (584 mg/L); D-glucose (4.5 g/L) supplemented with fetal bovine sera (10%); penicillin (100 units/mL) and streptomycin (100 mcg/mL); sodium pyruvate (10 μM final concentration). The cells were allowed to plate overnight in DMEM containing 10% fetal bovine sera at 37° C. in an atmosphere of 5% CO2/95% air. Following their placement into 96 well culture plates all the osteoblast-line cells, either the MC3T3-E1 or the TE-85 cell lines, were allowed an additional 24 hours preincubation period in media containing only 0.1% fetal bovine sera.
# Twenty hours later, a 20 μL aliquot of media containing 0.4 μCi of ^3 H-thymidine was added to each culture well. The cells were then incubated an additional 4 hours. The incubation was terminated by aspirating the media and washing with HBSS (Hank's Balanced Salt Solution). The cells were then treated with 100 μL of 0.5% trypsin and 5.3 mM EDTA for 30 minutes at room temperature. The cells were then aspirated onto glass fiber filter and washed with water. The radioactivity on the filters was quantified by liquid scintillation spectroscopy. The rate of ^3 H-thymidine incorporation into DNA was then utilized as an index of cell proliferation. The results are shown in Table 13 expressed as % times control where the control is 100%. […]
SMILES,IC50 [1] [nM],other results
O=[N+]([O-])c1ccc(S(=O)(=O)N2CCCC(c3ccccc3)=N2)cc1 [Compound 53],2200,
CCCCc1ccc(C2=NN(S(=O)(=O)c3cccc([N+](=O)[O-])c3)CCC2)cc1 [Compound 70],10000,
O=S(=O)(c1ccccc1)N1CCCC(c2ccc(Cl)c(C(F)(F)F)c2)=N1 [Compound 83],4.83,
O=[N+]([O-])c1ccc(S(=O)(=O)N2CCCC(c3ccc(Cl)c(C(F)(F)F)c3)=N2)cc1 [Compound 128],14.2,
O=S(=O)(c1cc(Cl)ccc1Cl)N1CCCC(c2ccc3c(c2)OCCO3)=N1 [Compound 123],557,
Cc1ccc(/C=C/S(=O)(=O)N2CCCC(c3ccc4ccccc4c3)=N2)cc1 [Compound 175],6.2,
O=S(=O)(c1ccccc1)N1CCCC(c2ccc(Cl)cc2)=N1 [Compound 37],12.9,
"COC(=O)c1ccc(S(=O)(=O)N2CCCC(c3ccc(Cl)c(Cl)c3)=N2)cc1 [Compound 273, 3-(3,4-Dichlorophenyl)-1-(4-carbomethoxybenzesulfonyl)-1,4,5,6-tetrahydropyridazine]",3.4,
CCCCc1ccc(S(=O)(=O)N2CCCC(c3ccc(Cl)c(Cl)c3)=N2)cc1 [Compound 108],3.35,
O=S(=O)(c1ccc(F)cc1)N1CCCC(c2ccccc2)=N1 [Compound 54],780,
O=S(=O)(c1ccc(Cl)c(Cl)c1)N1CCCC(c2ccc(Cl)cc2)=N1 [Compound 30],22,
O=S(=O)(c1cccc(C(F)(F)F)c1)N1CCCC(c2ccc(Cl)c(Cl)c2)=N1 [Compound 98],2.5,
COC(=O)c1ccccc1S(=O)(=O)N1CCCC(c2ccc(Cl)cc2)=N1 [Compound 29],244,
O=S(=O)(c1ccc(Cl)cc1)N1CCCC(c2ccccc2)=N1 [Compound 48],266,
O=S(=O)(c1ccc(Cl)cc1)N1CCCC(c2ccc3ccccc3c2)=N1 [Compound 117],4.97,
O=S(=O)(c1ccc(I)cc1)N1CCCC(c2ccc(Cl)cc2)=N1 [Compound 16],4.2,
O=S(=O)(c1ccc(I)cc1)N1CCCC(c2ccc(F)cc2)=N1 [Compound 20],56,
O=S(=O)(c1ccc(Cl)c(Cl)c1)N1CCCC(c2ccccc2)=N1 [Compound 60],191,
Cc1ccc(S(=O)(=O)N2CC(C)CC(c3ccccc3)=N2)cc1 (centres unmarked) [Compound 143],1380,
"Nc1ccc(S(=O)(=O)N2CCCC(c3ccc(Cl)c(Cl)c3)=N2)cc1 [Compound 274, 1-(4-Aminobenzenesulfonyl)-3-(3,4-dichlorophenyl)-1,4,5,6-tetrahydropyridazine]",204,
CCCCc1ccc(S(=O)(=O)N2CCCC(c3ccccc3)=N2)cc1 [Compound 55],21.9,
CCCCc1ccc(C2=NN(S(=O)(=O)c3ccc(CCCC)cc3)CCC2)cc1 [Compound 75],10000,
O=S(=O)(c1ccc(I)cc1)N1CCCC(c2ccccc2)=N1 [Compound 50],316,
Cc1ccc(S(=O)(=O)N2CCCC(c3ccc(Br)cc3)=N2)cc1 [Compound 101],195,
O=[N+]([O-])c1cccc(S(=O)(=O)N2CCCC(c3ccccc3)=N2)c1 [Compound 62],157,
O=S(=O)(c1ccc(Cl)cc1)N1CCCC(c2cccc(Cl)c2)=N1 [Compound 93],11.1,

SMILES,IC50 [1] [nM],other results
O=S(=O)(c1cccc(C(F)(F)F)c1)N1CCCC(c2ccc(Cl)c(C(F)(F)F)c2)=N1 [Compound 126],7.14,
O=S(=O)(c1cccc(C(F)(F)F)c1)N1CCCC(c2ccc3ccccc3c2)=N1 [Compound 130],2.31,
Fc1ccc(C(=S)N2CCCC(c3ccc(Cl)c(Cl)c3)=N2)cc1Br [Compound 246],114,
O=S(=O)(c1ccc(Br)cc1)N1CCCC(c2ccc(Br)cc2)=N1 [Compound 100],23,
O=S(=O)(c1ccc(C(F)(F)F)cc1)N1CCCC(c2ccc(Cl)cc2)=N1 [Compound 36],11.5,
O=S(=O)(c1ccccc1)N1CCCC(c2ccc3ccccc3c2)=N1 [Compound 131],17.4,
O=S(=O)(c1cc(Cl)ccc1Cl)N1CCCC(c2ccc(Br)cc2)=N1 [Compound 102],9,
"O=S(=O)(c1ccc(I)cc1)N1N=C(c2ccc(Cl)cc2)CC2CC=CC21 (centres unmarked) [Compound 160, 3-(4-Chlorophenyl)-1-(4-iodobenzenesulfonyl)-4,4a,5,7a-tetrahydro-1H-cyclopenta[c]pyridiazine]",32,
O=S(=O)(c1ccc(Cl)cc1)N1CCCC(c2ccc(Br)cc2)=N1 [Compound 99],21,
"CN(C)c1ccc(C2=NN(S(=O)(=O)c3ccc(I)cc3)CCC2)cc1 [Compound 209, 1-(4-Iodobenzenesulfonyl)-3-(4-dimethylaminophenyl)-1,4,5,6-tetrahydropyridazine]",117,
Cc1ccc(S(=O)(=O)N2CCCC(c3cccc(Cl)c3)=N2)cc1 [Compound 92],23.9,
O=S(=O)(c1ccc(F)cc1)N1CCCC(c2ccc(F)cc2)=N1 [Compound 18],204,
O=[N+]([O-])c1ccc(C(=S)N2CCCC(c3ccc(Cl)c(Cl)c3)=N2)cc1 [Compound 242],12,
O=S(=O)(c1ccc(F)cc1)N1CCCC(c2ccc(Cl)cc2)=N1 [Compound 17],48,
O=S(=O)(c1ccc(C(F)(F)F)cc1)N1CCCC(c2ccc3ccccc3c2)=N1 [Compound 129],4.94,
O=S(=O)(c1ccc(Br)cc1)N1CCCC(c2ccccc2)=N1 [Compound 49],127,
O=S(=O)(c1ccccc1)N1CCCC(c2ccc(Br)cc2)=N1 [Compound 103],149,
"O=S(=O)(c1ccc(I)cc1)N1CCC(Br)(Br)C(c2ccc(Cl)c(C(F)(F)F)c2)=N1 [Compound 162, 4,4-Dibromo-3-(4-chloro-3-trifluoromethylphenyl)-1-(4-iodobenzenesulfonyl)-1,4,5,6-tetrahydropyridazine]",3,
O=[N+]([O-])c1ccccc1S(=O)(=O)N1CCCC(c2ccc(Cl)cc2)=N1 [Compound 27],65,
COC(=O)c1ccccc1S(=O)(=O)N1CCCC(c2ccc(F)cc2)=N1 [Compound 26],451,
O=[N+]([O-])c1ccc(S(=O)(=O)N2CCCC(c3ccc(Cl)cc3)=N2)c([N+](=O)[O-])c1 [Compound 28],3140,
"Cc1ccc(C(=O)N2CCCC(c3ccc(Cl)cc3)=N2)cc1 [Compound 146, 1-(4-Methylbenzoyl)-3-(4-chlorophenyl)-1,4,5,6-tetrahydropyridazine]",1000,
O=S(=O)(c1ccc(F)cc1F)N1CCCC(c2ccccc2)=N1 [Compound 59],455,
CC1CC(c2ccccc2)=NN(S(=O)(=O)c2cccc(C(F)(F)F)c2)C1 (centres unmarked) [Compound 141],396,
COP(=O)(c1ccccc1)N1CCCC(c2ccc(F)cc2)=N1 (centres unmarked) [Compound 258],,"Osteoblast Cell Proliferation, 3H-thymidine incorporation vs control (100%) ([2]; 10^-6): 107%; Osteoblast Cell Proliferation, 3H-thymidine incorporation vs control (100%) ([2]; 10^-7): 107%; Osteoblast Cell Proliferation, 3H-thymidine incorporation vs control (100%) ([2]; 10^-8): 108%; Osteoblast Cell Proliferation, 3H-thymidine incorporation vs control (100%) ([2]; 10^-9): 107%; Osteoblast Cell Proliferation, 3H-thymidine incorporation vs control (100%) ([2]; 10^-10): 98%"
S=C(c1cc(Cl)cc(Cl)c1)N1CCCC(c2ccccc2)=N1 [Compound 247],,"Osteoblast Cell Proliferation, 3H-thymidine incorporation vs control (100%) ([2]; 10^-7): 118%; Osteoblast Cell Proliferation, 3H-thymidine incorporation vs control (100%) ([2]; 10^-8): 122%; Osteoblast Cell Proliferation, 3H-thymidine incorporation vs control (100%) ([2]; 10^-9): 122%; Osteoblast Cell Proliferation, 3H-thymidine incorporation vs control (100%) ([2]; 10^-10): 129%"
